Consider three compounds from patent US20100324079A1, “Medicament for prophylaxis and treatment of Alzheimer disease” (priority 2006, published 2010).

The subject of assay [1] is 3×Tg mouse. The assay can be described thus: Immunostaining of brain slices of 3×Tg mice (4G8, AT8). The format is in vivo. From the text: In 3×Tg mouse, it is observed that defects in the recognition function and intracellularly accumulated amyloid β proteins are correlated to each other. For evaluating amyloid β proteins accumulated within neurons, 3×Tg mice used in Example 6 were sacrificed for pathological analysis. Immunostaining was done with an antibody specific to an amyloid β protein and an antibody specific to a phosphorylated tau protein, which is a major component of neurofibrillary tangle in the AD brain. After completion of Morris water maze test after APO injection, the mice were subjected to perfusion fixation with 4% paraformaldehyde. Then, the whole brain was taken out, fixed with 4% paraformaldehyde and was left to stand in 15% sucrose for 48 hours and in 30% sucrose for 48 hours at 4° C. A slice with 20 μm thickness cut from the forehead including the hippocampus was prepared. Immunostaining was performed with 4G8 (Signet Laboratories, 1:1000) for an anti-amyloid β protein antibody and AT8 (Innogenetics, 1:200) for an anti-phosphorylated tau protein antibody using mouse to mouse immunostaining kit (Zymed) for DAB staining.

Assay [2] concerns p53. The assay can be described thus: p53 Western blot analysis in hydrogen peroxide treated SH-SY5Y cells. The format is cell-based. The note with it: 0, 1, 3 mM hydrogen peroxide, after 24 hours. As to the method: (§1) Further, in order to study p53 level and a rate of cell survival in cell damage induced by hydrogen peroxide, p53 Western blot analysis and survival rate assay using Cell Titer-Blue Assay Kit (Promega) were performed. Hydrogen peroxide treatment was done by adding an appropriate amount (0 mM, 1 mM, and 3 mM) of hydrogen peroxide to normal culture medium for SH-SY5Y cells supplemented with 10% serum as described above. After 24 hours, the increased p53 level by addition of hydrogen peroxide was inhibited by addition of APO (FIG. 4A). A rate of cell survival was also recovered by addition of APO.
Background: A western blot detects proteins with antibodies after separation by electrophoresis.

Assay [3] deals with proteasome. The assay can be described thus: Proteasome activity in SH-SY5Y cells (20S Proteasome Assay Kit, Suc-LLVY-AMC). The format is cell-based. How it is done: As described in Example 2(1) and (2), a change in the protease activity in SH-SY5Y cells by addition of APO was studied. Measurement of the protease activity was conducted by calculating a relative specific activity by measuring fluorescence generated from degradation of a specific substrate (Suc-LLVY-AMC) using 20S Proteasome Assay Kit (BostonBiochem). Comparison between two groups was done by Student t-test.

The test system of assay [4] is primary neurons from mouse fetus. The assay can be described thus: Protective effect in mouse primary neurons (cell survival, beta-tubulin immunostaining). The format is cell-based. How it is done: Primary neurons were taken from the brain of fetal mouse of 15 days old, separated by treatment with 0.03% trypsin and cultured in Neurobasal-A+B27 serum-free medium (Gibco). After stabilization by culture for about a week, the reagents were added and a rate of cell survival was measured.
Further, the above mouse primary neurons were immunostained with an antibody to beta-tubulin, a cytoskeletal protein of the axon and a network of the neurite was observed (FIG. 8).

Assay [5] concerns 3×Tg mouse. The assay can be described thus: Morris water maze test in heterozygous 3×Tg mice. The format is in vivo. How it is done:
3×Tg mouse is a model mouse of Alzheimer disease (AD) developed by Oddo and LaFerla et al. at University of California, Irvine. It is a mouse having three potent causes of disease wherein a gene of an amyloid precursor protein (APP) with KM670/671NL mutation, which is a gene causative of Swedish familial AD, and a gene of a tau protein (Tau) with P301L mutation, which is one of genes causative of familial frontotemporal dementia (FTD), are incorporated into a knock-in mouse of presenilin-1 (PS1) gene with M146V mutation causative of familial AD. […] It is also reported that the memory function of 3×Tg mouse is recovered when amyloid β proteins accumulated within neurons are decreased but defects in memory relapse if amyloid β proteins become accumulated (Billings L M et al., Neuron 45: 675-688, 2005). Thus, 3×Tg mouse is a model mouse of disease highly suitable for investigating efficacy of a medicament which targets intracellularly accumulated amyloid β proteins.
For investigating efficacy of apomorphine (APO) hydrochloride administered in vivo, APO was subcutaneously injected to 3×Tg. APO was purchased from Sigma Co. To heterozygous 3×Tg (6 month old; 4 mice in each group) generated from crossbreeding of a normal mouse and a Tg mouse, each 5 mg/kg of saline or APO was subcutaneously injected weekly for 4 weeks. The animals underwent analysis by Morris water maze test to evaluate the capacity of space memory before injection and after completion of four injections.
For quantitatively evaluating the capacity of space memory relating to the memory function of the hippocampus, Morris water maze test was performed. An analytical instrument used was DV-Track Video Tracking System (Muromachi Kikai Co., Ltd.). For Morris water maze, a round-shaped pool with a diameter of 1 m is prepared and a transparent goal stand is set in an arbitrary position of the pool. The animals undergo swimming training repeatedly by starting at an arbitrary position for reaching the goal stand (FIG. 9, left panel). In case that the animals could not reach the goal stand within 60 seconds, the test is discontinued and the animals are put on the goal stand for them to memorize the position. This training is repeated four times a day for three consecutive days and as a consequence the animals come to memorize the position of the goal stand (FIG. 9, right panel). Forty eight hours after completion of learning with time for reaching the goal stand being 15 seconds or less, the animals were let to swim in the pool without the goal stand and three indexes for memory were: time lag (s) in reaching the position where the goal stand was originally placed, a frequency (n) of crossing the position as seeking for the goal stand, and residential time (%) within ¼ block of the position where the goal stand was originally placed (48-hour probe test).

Assay [6] relates to intracellularly accumulated Aβ42. The assay can be described thus: Degradation of intracellularly accumulated Aβ42 in SH-SY5Y cells (immunoblot). The format is cell-based. From the text:
(§2) In order to investigate a compound that inhibits intracellular aggregation and accumulation of amyloid β proteins based on activation of intracellular proteasome, a system was constructed for assaying an activity to degrade intracellularly accumulated Aβ. Neuroblastoma cells (SH-SY5Y; ATCC) were used as culture cells and Aβ40 was artificially accumulated within the cells. […] If the activity to degrade Aβ40 was high, the activity to degrade Aβ42 was analogously thought to be high. For introducing amyloid β proteins within cells, hypertonicity influx method was used. Briefly, using Influx™ Pinocytic Cell-loading Reagent (Molecular Probe), SH-SY5Y cells (1×10^6 cells) were exposed to Aβ40 (about 200 μg; ANASPEC) with hypertonicity for 10 minutes/hypotonicity for 2 minutes so that Aβ40 peptides may be incorporated into cells via pinocytosis and spread pervasively in cytoplasm. After accumulation of Aβ40 within cells, degradation of Aβ with lapse of time was observed. […] These reagents were added to culture two hours before Aβ40 accumulation to investigate their activity.
(§3) Zero minute and thirty minutes after Aβ40 treatment, cells were collected and subjected to immunoblot. Immunoblot was performed as commonly known in the art wherein soluble proteins were extracted from cells with 2% SDS, run on Tris/Tricine gel SDS-PAGE, transblotted to PVDF membrane (Semi-dry method) and detected with an anti-Aβ antibody (4G8, Signet Pathology Systems). Quantitative evaluation was done by quantitatively evaluating the immune reaction of amyloid β proteins. Quantitative evaluation was performed by taking in the photos with Photoshop and measuring density of bands with NIH Image. […] Thus, it was considered that intracellularly accumulated Aβ40 were degraded by proteasome and that APO may enhance the degrading process.
As described in Example 1(1) and (2), degradation of intracellularly accumulated Aβ was assayed for Aβ42 provided that cells were collected 0 minute and 90 minutes after Aβ42 treatment and subjected to immunoblot.

Assay [7] has as its system SH-SY5Y cells. The assay can be described thus: Cell death induced by hydrogen peroxide in SH-SY5Y cells (cell survival). The format is cell-based. The note with it: for rate of cell survival: hydrogen peroxide. How it is done: A cell death inhibitory activity of apomorphine hydrochloride to cell death induced by hydrogen peroxide was studied. Hydrogen peroxide treatment was performed by adding an appropriate amount (0 mM, 1 mM, and 3 mM) of hydrogen peroxide to normal culture medium for SH-SY5Y cells supplemented with 10% serum and by investigating cell survival after 24 hours. The cells were fixed with methanol/acetone (50%/50%) for 10 minutes so that the conditions of surviving cells could easily be observed and then subjected to immunostaining with an anti-APP C-terminal antibody (Sigma-Aldrich) using Universal Kit (DAKO). As a result, cell death was induced by hydrogen peroxide (FIG. 3, upper panels). Then, the cells were treated with 10 μM APO together with 0 mM, 1 mM, and 3 mM of hydrogen peroxide.
as §1

For assay [8], the system named is intracellularly accumulated Aβ40. The assay can be described thus: Degradation of intracellularly accumulated Aβ40 in SH-SY5Y cells (immunoblot, confocal microscopy). The format is cell-based. The following applies: for degradation of intracellularly accumulated Aβ40 after 30 minutes: reagent added 2 hours before Aβ40 accumulation, immunoblot with 4G8.
From the text: as §2, §3
Aβ40 was incorporated into cells via pinocytosis as in (1) above.

The subject of assay [9] is 3×Tg mouse. The assay can be described thus: Preventive effect to onset of AD, Morris water maze test in homozygous 3×Tg mice. The format is in vivo. The note with it: weekly 5 mg/kg from 3 months old up till 6 months old, hydrochloride. As to the method: For investigating whether APO administration may prevent onset of AD, the effect of weekly administration of 5 mg/kg of APO before onset was studied. The recognition function and the pathological change in 3×Tg mice may widely vary from individual to individual and thus still much more data would be necessary for obtaining a definite conclusion.

Entries after “also recorded” stand apart in the source; their conditions may differ. Where a name gives a salt, the structure may show the parent alone. Peptide text beside a SMILES is read from it. * marks the point of attachment. Cbz = O=C(OCc1ccccc1)*

For the compound `CN1CCc2cccc3c2[C@H]1Cc1ccc(O)c(O)c1-3` [APO, apomorphine hydrochloride], the “fall-off of massive neurons” value in [1] (3×Tg mice at the stage of 6-month, after administration) is given as “not observed”. Also, the “intraneuronal accumulation of amyloid β proteins (4G8 immunostaining)” value in assay [1] (cerebral cortex and hippocampus CA1 region, 3×Tg mice of Example 6, vs saline, hydrochloride) is recorded as “evidently inhibited”. Besides, the “intraneuronal accumulation of phosphorylated tau proteins (AT8 immunostaining)” value in [1] (cerebral cortex and hippocampus, 3×Tg mice of Example 6, vs saline, hydrochloride) is recorded as “the accumulation was inhibited”. In addition, the “p53 level increased by hydrogen peroxide” value in assay [2] is listed as “inhibited”. Further, in assay [3] (APO alone, hydrochloride), the “proteasome activity (relative specific activity)” value is recorded as “enhanced the proteasome activity; also recorded: increased”. Also, the “decreased proteasome activity at addition of oxidative stress” value in [3] (oxidative stress plus APO) was “recovered”. For the same compound, the “network of the neurite (beta-tubulin immunostaining)” value in [4] (mouse primary neurons) was “protection and maintenance of the network”. Further, the “apoptosis inhibitory activity for oxidative stress (rate of cell survival)” value in assay [4] (primary neurons from fetal mouse of 15 days old) was “also seen in primary neurons from mouse fetus”. Also, the “concentration at which the effect of APO was at the peak” value in assay [4] (primary neurons from mouse fetus, rate of cell survival, thereafter declined) stood at 10 µM. In addition, the “capacity of memory for the goal stand position (loci of swimming), 48-hour probe test” value in [5] (3×Tg cases (2 mice) in which APO injection was efficacious, hydrochloride) is on record as “the memory retention of the goal stand position was improved; also recorded: markedly improved”. Moreover, the “capacity of learning after 3-day consecutive training (time for reaching the goal stand)” value in [5] (heterozygous 3×Tg, 6 month old, 5 mg/kg subcutaneous weekly for 4 weeks, n=4, hydrochloride, 5 mg/kg) is “a tendency of improvement in the capacity of memory and learning; also recorded: slightly higher capacity of learning after treatment”. Also, in [5] (heterozygous 3×Tg, 5 mg/kg s.c. weekly for 4 weeks, after vs before injection, p=0.03), the “frequency of crossing the goal stand, 48-hour probe test” value is listed as “increase in frequency of crossing the goal stand”. Also, the “residential time (%) within ¼ block of the goal stand, 48-hour probe test” value in assay [5] (heterozygous 3×Tg, 5 mg/kg s.c. weekly for 4 weeks, after vs before injection, p=0.04) was “increase in residential time”. The “time lag in reaching the goal stand, 48-hour probe test” value in [5] (heterozygous 3×Tg, 5 mg/kg s.c. weekly for 4 weeks, after vs before injection, p=0.05) is listed as “shortening of time lag in reaching the goal stand”. Also, the “degradation of intracellularly accumulated Aβ42 after 90 minutes” value in assay [6] was “degradation after 90 minutes was enhanced”. Also, the “cell survival (number of surviving cells and morphological features)” value in assay [7] (10 μM APO with 0, 1, 3 mM hydrogen peroxide, 24 hours, immunostaining) was “evident enhancement of cell survival”. Moreover, the “rate of cell survival” value in [7] (10 μM APO, Cell Titer-Blue, p<0.0001) is reported as “extremely improved”; in assay [7] (24 hours, Cell Titer-Blue Assay Kit) it was “recovered”. In [8] (10 μM APO added two hours before), the “change in intracellular Aβ40 with lapse of time” value was “degraded with lapse of time”. Besides, in [8], the “degradation of intracellularly accumulated Aβ40 after 30 minutes” value was “degradation after 30 minutes was enhanced”. The “degradation of intracellularly accumulated Aβ40 inhibited by MG132, effect of adding APO” value in [8] (with MG132, 30 minutes, immunoblot) is reported as “the degradation was recovered”. Besides, the “capacity of memory acquisition in swimming training (time lag in reaching the goal stand)” value in assay [9] is on record as “comparable to Non-Tg mice; also recorded: evidently superior to that of 3×Tg mice with no treatment; also recorded: comparable to non-transgenic mice”.
For the compound “Aβ42: amyloid β protein of 42 residues; printed in b62 as the added agent, probably a misprint for APO”, the “degradation of intracellularly accumulated Aβ42 inhibited by MG132, recovery” value in assay [6] (with MG132, 90 minutes) was “the degradation was recovered”.
`CC(C)C[C@@H](C=O)NC(=O)[C@H](CC(C)C)NC(=O)[C@H](CC(C)C)NC(=O)OCc1ccccc1` [MG132] (Cbz-Leu-Leu-Leu-aldehyde): the “degradation of intracellularly accumulated Aβ42 after 90 minutes” value in [6] is reported as “degradation was inhibited”. In [8], the “degradation of intracellularly accumulated Aβ40 after 30 minutes” value is “degradation was inhibited”.
